Experimental data published in US8354394B2, “Diuretics” (Merck Sharp & Dohme Corp., priority 2009, dated 2013).

System: beagle dogs
Test: canine telemetry protocol for blood pressure reduction efficacy
Assay type: in vivo
Conditions: male beagle dogs, 3 mg/kg oral gavage
Experimental: Compounds of the invention were evaluated for blood pressure reduction efficacy using the following canine telemetry protocol.
Male beagle dogs (approximately 1-3 years old) with a body weight of between 10 and 16 kg were surgically implanted with DSI radiotelemetry devices (model: TL11M2-D70-PCT). Briefly, under an inhalant anesthesia, isoflurane/oxygen mixture (1-3.5%/to effect), the body of the telemetry device was positioned and secured intra-abdominally. Subsequently, the arterial catheter of the telemetry device was passed subcutaneously to the inguinal area and introduced into the femoral artery and advanced to the level of the descending aorta. The catheter was secured with 2-0 silk ligatures. The muscle and underlying fascia was closed over the catheter using absorbable suture and the skin was closed using non-absorbable suture. The animals were allowed a minimum recovery period of 2 weeks between surgery and the evaluation of test compounds.
Compound evaluation consisted of a 3 day paradigm at a 3 mg/kg dose. On the first day, no compounds were administered during a 24 hour period of baseline data collection. Blood pressure and heart rate data were collected continuously for one minute periods at 10 minute intervals. On the days of compound administration half the animals received test article with the other half receiving the vehicle used for compound formulation. All test materials were administered by oral gavage in a volume of 1 mL/kg. Data are expressed either as raw values (mm Hg or beats per minute) or as the change from baseline (average value for about 12 hours in low activity period prior to dosing). Change is SBP (systolic blood pressure) and PP (pulse pressure) over time is shown below: […]

Compound	ΔPP (pulse pressure, change from baseline) 1-6 h [mm Hg]	ΔSBP (systolic blood pressure, change from baseline) 1-6 h [mm Hg]	ΔPP (pulse pressure, change from baseline) 6-12 h [mm Hg]	ΔSBP (systolic blood pressure, change from baseline) 6-12 h [mm Hg]	ΔPP (pulse pressure, change from baseline) 12-18 h [mm Hg]	ΔSBP (systolic blood pressure, change from baseline) 12-18 h [mm Hg]
Cc1ncc2c(c1OC(=O)[C@H]1CC[C@@H](O/N=[N+](\[O-])N(C)C(C)(C)C)CC1)CO[C@H]2c1ccc(Cl)cc1 [Example 5, (3S)-3-(4-Chlorophenyl)-6-methyl-1,3-dihydrofuro[3,4-c]pyridin-7-yl cis-4-({[(1Z)-2-tert-butyl-2-methyl-1-oxidohydrazono]amino}oxy)cyclohexanecarboxylate]	−10	−11	−3	−2	1	2
Cc1ncc2c(c1OC(=O)[C@H]1CC[C@H](O/N=[N+](\[O-])N(C)C(C)(C)C)CC1)CO[C@H]2c1ccc(Cl)cc1 [Example 6, (3S)-3-(4-Chlorophenyl)-6-methyl-1,3-dihydrofuro[3,4-c]pyridin-7-yl trans-4-({[(1Z)-2-tert-butyl-2-methyl-1-oxidohydrazono]amino}oxy)cyclohexanecarboxylate]	−16	−16	−7	−6	−3	−1
Cc1ncc2c(c1OC(=O)CCCCO/N=[N+](\[O-])N(C)C(C)(C)C)CO[C@H]2c1ccc(Cl)cc1 [Example 8, (3S)-3-(4-Chlorophenyl)-6-methyl-1,3-dihydrofuro[3,4-c]pyridin-7-yl 5-({[(1Z)-2-tert-butyl-2-methyl-1-oxido-1λ^5-diazan-1-ylidene]amino}oxy)pentanoate]	−12	−15	−8	−12	−4	−2
Cc1ncc2c(c1OC(=O)CCC(C)CO/N=[N+](\[O-])N(C)C(C)(C)C)CO[C@H]2c1ccc(Cl)cc1 (stereo partly drawn) [Example 13, (3S)-3-(4-Chlorophenyl)-6-methyl-1,3-dihydrofuro[3,4-c]pyridin-7-yl 5-({[(1Z)-2-tert-butyl-2-methyl-1-oxido-1λ^5-diazan-1-ylidene]amino}oxy)-4-methylpentanoate]	−22	−30	−11	−15	−6	−4
Cc1ncc2c(c1OC(=O)CCCC(C)O/N=[N+](\[O-])N(C)C(C)(C)C)CO[C@H]2c1ccc(Cl)cc1 (stereo partly drawn) [Example 14, (3S)-3-(4-Chlorophenyl)-6-methyl-1,3-dihydrofuro[3,4-c]pyridin-7-yl 5-({[(1Z)-2-tert-butyl-2-methyl-1-oxido-1λ^5-diazan-1-ylidene]amino}oxy)hexanoate]	−18	−21	−9	−8	−3	3
Cc1ncc2c(c1OC(=O)O[C@@H](C)CCCCO/N=[N+](\[O-])N(C)C(C)(C)C)CO[C@H]2c1ccc(Cl)cc1 [Example 25, (2S)-6-({[(1Z)-2-tert-butyl-2-methyl-1-oxido-1λ^5-diazan-1-ylidene]amino}oxy)hexan-2-yl (3 S) 3-(4-chlorophenyl)-6-methyl-1,3-dihydrofuro[3,4-c]pyridin-7-yl carbonate]	−12	−14	−7	−7	−4	0
